Consider 27 compounds from patent publication US6812229B1, “Carbamate derivative and agricultural/horticultural fungicide” (Kumiai Chemical Industry Co., Ltd., priority 1999, dated 2004).

The test concerns Septoria nodorum. The test can be described thus: Test for preventive effect on Septoria leaf blotch of wheat. Type of test: in vivo. Particulars: wheat seedlings (Norin-61-go), two-leaf stage, 50 ppm active ingredient, 10 ml per pot, evaluated 10 days after inoculation with Septoria nodorum. The source says:
[table] 10 Wheat seeds (variety: Norin-61-go) were sown in each plastic pot having a diameter of 6 cm, and grown in a greenhouse. […] Then, the seedlings were inoculated with Septoria nodorum […] controlled in a greenhouse. 10 Days after the inoculation, the total diseased area of the first leaves in each pot was observed and evaluated on the basis of the standards shown in Table 21.

In the case of `COC(=O)NCc1cc(C(C)=NOCc2cccc(C)n2)ccc1Cl` (single isomer, unassigned) [A-286], the “Evaluation (total diseased area of the first leaves)” value (shortened to “Evaluation”) is recorded as “A (No diseased area)”.

Turning to `COC(=O)NCc1cc(C(C#N)=NOCc2ccccc2)ccc1Cl` [A-7], the “Evaluation” value is reported as “A (No diseased area)”.

For `COC(=O)NCc1cc(C(C#N)=NOCc2ccccc2Cl)ccc1Cl` [A-8], the “Evaluation” value is on record as “B (Diseased area of less than 5%)”.

Consider `COC(=O)NCc1cc(C(C#N)=NOCc2ccccc2)ccc1C` [A-20], for which the “Evaluation” value is “B (Diseased area of less than 5%)”.

As for `COC(=O)NCc1cc(C(C#N)=NOCc2ccccc2Cl)ccc1C` [A-21], the “Evaluation” value is recorded as “A (No diseased area)”.

`CCCCON=C(C)c1ccc(Cl)c(CNC(=O)OC)c1` [A-52]: the “Evaluation” value is recorded as “A (No diseased area)”.

As for `CCC(C)ON=C(C)c1ccc(Cl)c(CNC(=O)OC)c1` (stereo not drawn) [A-53], the “Evaluation” value was “A (No diseased area)”.

In the case of `COC(=O)NCc1cc(C(C)=NOCC(C)C)ccc1Cl` [A-54], the “Evaluation” value is reported as “A (No diseased area)”.

With `COC(=O)NCc1cc(C(C)=NOCC2CC2)ccc1Cl` [A-56], the “Evaluation” value is “B (Diseased area of less than 5%)”.

For `COC(=O)NCc1cc(C(C)=NOCC(F)(F)F)ccc1Cl` [A-70], the “Evaluation” value is given as “A (No diseased area)”.

Take `COC(=O)NCc1cc(C(C)=NOc2ccccc2)ccc1Cl` [A-73]: the “Evaluation” value is “A (No diseased area)”.

Regarding `COC(=O)NCc1cc(C(C)=NOCc2ccccc2OC)ccc1Cl` [A-93], the “Evaluation” value was “A (No diseased area)”.

Consider `COC(=O)NCc1cc(C(C)=NOCc2cccc(OC)c2)ccc1Cl` [A-94], for which the “Evaluation” value is listed as “A (No diseased area)”.

`COC(=O)NCc1cc(C(C)=NOCc2ccc(OC)cc2)ccc1Cl` [A-95]: the “Evaluation” value is on record as “A (No diseased area)”.

In the case of `COC(=O)NCc1cc(C(C)=NOCc2cccc(C#N)c2)ccc1Cl` [A-102], the “Evaluation” value is “A (No diseased area)”.

With `COC(=O)NCc1cc(C(C)=NOCc2ccc(C#N)cc2)ccc1Cl` [A-103], the “Evaluation” value is “B (Diseased area of less than 5%)”.

With `CCON=C(CC)c1ccc(Cl)c(CNC(=O)OC)c1` [A-111], the “Evaluation” value is reported as “A (No diseased area)”.

On to `COC(=O)NCc1cc(C(C)=NOCc2cccc(OC)c2)cc(C)c1Cl` [A-157], for which the “Evaluation” value is “A (No diseased area)”.

Take `COC(=O)NCc1cc(C(C)=NOCc2ccc(OC)cc2)cc(C)c1Cl` [A-158]: the “Evaluation” value is reported as “A (No diseased area)”.

Consider `COC(=O)NCc1cc(C(C)=NOCc2cccc(C(F)(F)F)c2)cc(C)c1Cl` [A-159], for which the “Evaluation” value is “A (No diseased area)”.

For the compound `COC(=O)NCc1cc(C(C)=NOCc2ccc(C(F)(F)F)cc2)cc(C)c1Cl` [A-160], the “Evaluation” value is on record as “B (Diseased area of less than 5%)”.

With `COC(=O)NCc1cc(C(C)=NOCC=C(Cl)Cl)ccc1Cl` [A-185], the “Evaluation” value is listed as “A (No diseased area)”.

Consider `CC=CCON=C(C)c1ccc(Cl)c(CNC(=O)OC)c1` [A-189], for which the “Evaluation” value is listed as “A (No diseased area)”.

As for `C=CCCON=C(C)c1ccc(Cl)c(CNC(=O)OC)c1` [A-198], the “Evaluation” value is on record as “A (No diseased area)”.

Regarding `COC(=O)NCc1cc(C(C)=NOCC=Cc2ccccc2)ccc1Cl` [A-201], the “Evaluation” value was “A (No diseased area)”.

In the case of `COC(=O)NCc1cc(C(C)=NOCc2ccccc2)ccc1Cl` [A-206], the “Evaluation” value is recorded as “B (Diseased area of less than 5%)”.

As to `COC(=O)NCc1cc(C(C)=NOCc2ccccc2Cl)ccc1Cl` [A-207], the “Evaluation” value is given as “A (No diseased area)”.
